Laboratory results: article PMC3951351 (Biochemistry, 2009)

Biological target: T1, MreB (MreB1) (Thermotoga maritima, UniProt Q9WZ57)
T1 sequence (Q9WZ57 1-336): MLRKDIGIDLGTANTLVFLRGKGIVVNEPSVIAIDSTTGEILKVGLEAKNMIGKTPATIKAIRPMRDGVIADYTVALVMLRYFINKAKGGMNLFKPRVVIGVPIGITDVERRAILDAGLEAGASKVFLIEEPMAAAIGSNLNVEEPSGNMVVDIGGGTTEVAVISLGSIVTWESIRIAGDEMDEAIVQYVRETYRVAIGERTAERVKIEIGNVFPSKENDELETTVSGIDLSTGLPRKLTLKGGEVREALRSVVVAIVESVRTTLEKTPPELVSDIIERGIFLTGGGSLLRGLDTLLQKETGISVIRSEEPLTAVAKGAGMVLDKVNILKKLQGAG
Assay: STD NMR titration
Assay type: binding

- Kd: 1.32 ± 0.14 µM
Structure (SMILES): N=C(N)SCc1ccc(Cl)c(Cl)c1 [A22, S-(3,4-dichlorobenzyl)isothiourea]
